GI50 and TGI data for nine compounds are collected here from PubChem BioAssay (NCI).

Several values for one entry are separate records, joined by “and”; a condition that tells them apart may be missing. Identical values can stand only once.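 Results reflect a 48-hour exposure of cells in 96-well plates to compound at five concentrations. Abbreviation: GI50, concentration required for 50% inhibition of growth. At the TGI there is no net growth.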

Test systems include SK-MEL-2 melanoma; UACC-257 melanoma; SR leukemia; OVCAR-3 ovarian; OVCAR-8 ovarian; IGROV1 ovarian; OVCAR-5 ovarian; OVCAR-4 ovarian; SF-539 CNS; SK-OV-3 ovarian.
What all share (assay): NCI anticancer screen, dose series, 48 h

For the compound `N#CN1CCC[C@H]1C(=O)N1CCc2c(-c3[nH]nc4ncccc34)cccc21`, the GI50 was below 0.01 µM in the experiment on SK-MEL-2 melanoma; below 0.01 µM in the experiment with UACC-257 melanoma; below 0.01 µM with SR leukemia; below 0.01 µM in the experiment on OVCAR-3 ovarian; below 0.01 µM in the experiment with OVCAR-8 ovarian; 0.0862 µM in the experiment with IGROV1 ovarian. The GI50 with OVCAR-5 ovarian was below 0.0156 µM; with OVCAR-4 ovarian, below 0.01 µM; in the experiment on SF-539 CNS, below 0.01 µM; with SK-OV-3 ovarian it was 0.013 µM. The TGI was 18.2 µM with SK-MEL-2 melanoma; 14.5 µM in the experiment on UACC-257 melanoma; 20 µM in the experiment on SR leukemia; below 0.01 µM with OVCAR-3 ovarian; 11 µM with OVCAR-8 ovarian; 12.6 µM in the experiment with IGROV1 ovarian. Further, the TGI in the experiment on OVCAR-5 ovarian was 17.4 µM; in the experiment on OVCAR-4 ovarian, 13.3 µM; in the experiment with SF-539 CNS it was below 0.01 µM; in the experiment on SK-OV-3 ovarian, 0.0694 µM.
On to `COc1cccc(NC(=O)CC(=O)N2NC(C)C(N=Nc3cccc(C(=O)O)c3)C2=O)c1` (configuration not stated), for which the TGI with SK-MEL-2 melanoma, in the experiment with UACC-257 melanoma, in the experiment with SR leukemia, in the experiment with OVCAR-3 ovarian, in the experiment on OVCAR-8 ovarian and in the experiment with IGROV1 ovarian was above 100 µM each time. Besides, the TGI with OVCAR-5 ovarian, in the experiment on OVCAR-4 ovarian, with SF-539 CNS and in the experiment with SK-OV-3 ovarian was above 100 µM each time.
Turning to `C[C@H]1CC[C@@H]2[C@@H](C)[C@H]3[C@H](C[C@H]4[C@@H]5CC=C6C[C@@H](O)CC[C@]6(C)[C@H]5C[C@H](O)[C@]34C)N2C1`, the TGI with SK-MEL-2 melanoma, in the experiment with UACC-257 melanoma, with SR leukemia, in the experiment on OVCAR-3 ovarian, in the experiment with OVCAR-8 ovarian and with IGROV1 ovarian was above 100 µM each time. The TGI with OVCAR-5 ovarian, in the experiment with OVCAR-4 ovarian, in the experiment on SF-539 CNS and with SK-OV-3 ovarian was above 100 µM in each case.
With `N#Cc1cccc(NC(=O)c2oc3ccccc3c2-c2cnn(-c3ccccc3)c2)c1`, the GI50 in the experiment with SK-MEL-2 melanoma was above 500 µM; with UACC-257 melanoma, above 500 µM; in the experiment on SR leukemia, 148 µM; with OVCAR-3 ovarian, above 500 µM; with OVCAR-8 ovarian, above 500 µM; in the experiment on IGROV1 ovarian it was 120 µM. Moreover, the GI50 in the experiment on OVCAR-5 ovarian was above 500 µM; in the experiment on OVCAR-4 ovarian it was 193 µM; in the experiment with SF-539 CNS it was 137 µM; with SK-OV-3 ovarian, above 500 µM. In addition, the TGI in the experiment with SK-MEL-2 melanoma, with UACC-257 melanoma, in the experiment with SR leukemia, with OVCAR-3 ovarian, in the experiment with OVCAR-8 ovarian and in the experiment with IGROV1 ovarian was above 500 µM each time. Also, the TGI in the experiment with OVCAR-5 ovarian, with OVCAR-4 ovarian, with SF-539 CNS and in the experiment on SK-OV-3 ovarian was above 500 µM in each case.
Turning to `C[C@H]1CC(=O)C2=CCCC3(SCCCS3)[C@@H]2[C@H]1CO`, the TGI in the experiment with SK-MEL-2 melanoma, in the experiment with UACC-257 melanoma, with SR leukemia, in the experiment with OVCAR-3 ovarian, with OVCAR-8 ovarian and in the experiment on IGROV1 ovarian was above 100 µM throughout. For the same compound, the TGI with OVCAR-5 ovarian, in the experiment on OVCAR-4 ovarian, in the experiment on SF-539 CNS and with SK-OV-3 ovarian was above 100 µM throughout.
In the case of `COc1c(CNC(=O)CCl)cc2[nH]c(C)cc2c1CNC(=O)CCl`, the GI50 in the experiment with SK-MEL-2 melanoma is 11 µM; in the experiment on UACC-257 melanoma it was 6.8 µM; in the experiment on SR leukemia, 4.36 µM; in the experiment with OVCAR-3 ovarian, 3.41 µM; in the experiment with OVCAR-8 ovarian, 4.73 µM; in the experiment on IGROV1 ovarian it was 3.49 µM. In addition, the GI50 with OVCAR-5 ovarian is 5.44 µM; in the experiment with OVCAR-4 ovarian, 4.55 µM; in the experiment on SF-539 CNS, 7.09 µM; in the experiment with SK-OV-3 ovarian it was 12.4 µM. For the same compound, the TGI was 41.6 µM with SK-MEL-2 melanoma; 36.5 µM with UACC-257 melanoma; above 100 µM in the experiment on SR leukemia; 13 µM with OVCAR-3 ovarian; 60.4 µM in the experiment with OVCAR-8 ovarian; above 100 µM with IGROV1 ovarian. Further, the TGI in the experiment on OVCAR-5 ovarian worked out at 25.9 µM; in the experiment with OVCAR-4 ovarian, 22.3 µM; in the experiment on SF-539 CNS, 29.8 µM; with SK-OV-3 ovarian it was 86.4 µM.
`COc1cc2c3c(n(C)c(=O)c2cc1OC)-c1cc2c(cc1/C3=C\CCCBr)OCO2`: the GI50 in the experiment with SK-MEL-2 melanoma is 21.3 µM; in the experiment with UACC-257 melanoma, above 41.5 µM; in the experiment on SR leukemia, 13.3 µM; in the experiment with OVCAR-3 ovarian, above 92.2 µM; in the experiment with IGROV1 ovarian, 28.5 µM; in the experiment on OVCAR-5 ovarian, 19.3 µM. Besides, the GI50 is 39.2 µM in the experiment with OVCAR-4 ovarian, 10.3 µM in the experiment on SF-539 CNS and 18.1 µM in the experiment with SK-OV-3 ovarian. Further, the TGI with SK-MEL-2 melanoma was 69.4 µM; with UACC-257 melanoma, above 100 µM; in the experiment with SR leukemia, above 100 µM; in the experiment with OVCAR-3 ovarian, above 100 µM; in the experiment on OVCAR-8 ovarian it was above 48.7 µM; in the experiment on IGROV1 ovarian it was above 100 µM. The TGI is above 70.6 µM with OVCAR-5 ovarian, above 100 µM with OVCAR-4 ovarian, above 41.6 µM in the experiment with SF-539 CNS and 44.8 µM in the experiment on SK-OV-3 ovarian.
Turning to `COc1cc([C@@H]2c3cc4c(cc3[C@H](O)[C@H]3COC(=O)[C@H]23)OCO4)cc(OC)c1OC`, the GI50 in the experiment on SK-MEL-2 melanoma is below 0.005 µM; with SR leukemia, below 0.01 µM; in the experiment with OVCAR-3 ovarian, below 0.005 µM; with OVCAR-8 ovarian it was below 0.01 µM; in the experiment on IGROV1 ovarian, below 0.005 µM; in the experiment with OVCAR-4 ovarian, below 0.005 µM. Also, the GI50 in the experiment with SF-539 CNS and in the experiment on SK-OV-3 ovarian was below 0.01 µM each time. Moreover, the TGI was > 100 µM and 50 µM with UACC-257 melanoma; below 0.005 µM in the experiment with SR leukemia; > 100 µM and 50 µM and > 7.6 µM in the experiment with OVCAR-8 ovarian; > 100 µM and 46.3 µM in the experiment on OVCAR-5 ovarian; below 0.005 µM in the experiment with SF-539 CNS.
Take `CC1=C(/C=C/C(C)=C/C=C/C(C)=C/C(=O)Nc2ccc(O)cc2)C(C)(C)CCC1`: the GI50 with SK-MEL-2 melanoma is 4.17 µM; with UACC-257 melanoma, 4.55 µM; with SR leukemia it was 2.53 µM and 1.33 µM; with OVCAR-3 ovarian, 1.5 µM; with OVCAR-8 ovarian, 2.56 µM; with IGROV1 ovarian it was 1.19 µM. The GI50 with OVCAR-5 ovarian was 12.5 µM; in the experiment with OVCAR-4 ovarian it was 2.6 µM; in the experiment with SF-539 CNS, 0.355 µM; in the experiment on SK-OV-3 ovarian, 2.82 µM. Also, the TGI in the experiment on SK-MEL-2 melanoma is 13.3 µM and 17.4 µM; in the experiment on UACC-257 melanoma, 17.4 µM and 24 µM; with SR leukemia, 6.02 µM and 5.97 µM; with OVCAR-3 ovarian, 3.13 µM and 7.54 µM; with OVCAR-8 ovarian, 8.48 µM and 10.2 µM; in the experiment on IGROV1 ovarian it was 3.68 µM and 4.91 µM. In addition, the TGI is 26.8 µM and 24 µM in the experiment with OVCAR-5 ovarian; 9.53 µM and 14.8 µM in the experiment with OVCAR-4 ovarian; 1.73 µM and 3.39 µM with SF-539 CNS; 9.71 µM and 17.2 µM in the experiment on SK-OV-3 ovarian.
